From publication PMC12812009, “Optimization of 4‐Amino‐2‐Pyridone Inhibitors of Proprotein Convertase Subtilisin/Kexin Type 9: Integrating Structure–Activity and Structure–Metabolism Relationships” (Chemmedchem, 2025)
Where two headings read alike, the source gives them in different places.

Assays:
[1] = MTT cell viability assay in HepG2 cell cultures; assay type: cell-based, human; settings: human, HepG2 cells, MTT
Protocol: (§1) The approach we set‐up to test the new PCSK9i was based on functional assay, which evaluated at the same time compounds cytotoxicity, and their effect on the secreted PCSK9 on the same cell line. First, cell viability was evaluated in HepG2 cell cultures using the MTT assay (CC50 values are reported in Table 1 and Figure 5 ) after 24 h of incubation in starving conditions (0.4% fetal bovine serum (FBS)). The low FBS concentration, and thus low extracellular lipoproteins, stimulates the sterol responsive element binding protein (SREBP) pathway, inducing the expression of LDLR, PCSK9, HMG‐CoA reductase,^[ [28] ^] thus increasing the uptake of exogenous cholesterol and enhancing the synthesis of endogenous cholesterol. This first step allowed us to calculate the CC50 and identify the noncytotoxic concentrations (viability higher than 90%; Table 1), then tested for PCSK9 inhibitory activity.
(§2) Cell viability was assessed using the MTT assay. Cells were seeded in 96‐well plates (2.5 × 10^4 cells/well) in MEM supplemented with 10% v/v FBS and incubated for 24 h. The cells were then treated with the synthesized compounds dissolved in DMSO at increasing concentrations (from 0.5 to 50 µM) in MEM supplemented with 0.4% v/v FBS for 24 h. Simvastatin [20 and 40 µM] and BBR [10 µM] (both from Merck, St. Louis, Missouri, USA) were used as internal controls as PCSK9 inducer and inhibitor, respectively.^[ [21] ^, [34] ^, [35] ^] The cells were then incubated for 2 h with a solution of MTT [1 mg mL^–1] in MEM supplemented with 0.4% v/v FBS, away from light sources. The supernatant was then collected and 200 µL of DMSO was added to each well to solubilize the newly formed formazan. Finally, an aliquot of 100 µL was taken to measure the absorbance at a wavelength of 570 nm using an absorbance microplate reader (Spark Tecan, Switzerland). Every experimental condition was run in duplicate and the average cell viability and standard deviation was calculated. Cell viability was expressed as the percentage of treated cells compared to untreated (basal) cells. CC50 values for each compound were calculated by interpolating the percentage of cell viability through nonlinear regression analysis of the log (inhibition) versus response using GraphPad Prism software version 8.0 (GraphPad Software Inc., La Jolla, CA).

HepG2 cell cultures = experiment: MTT cell viability assay in HepG2 cell cultures; assay type: cell-based, human; settings: 0.5-50.0 μM, HepG2, MTT, 24 h
Protocol: as §1, §2

[2] = In vitro metabolic stability with mouse liver microsomes; assay type: in vitro ADME; settings: for metabolic stability (in words): MLM + NADPH-generating system
Protocol: All newly synthesized LSF derivatives of 5c were biologically evaluated to determine whether the introduced modifications influenced both metabolic stability and anti‐PCSK9 activity. Microsomal stability assays were conducted to assess the impact of LSF modifications on improving the stability of 5c. In these assays, LSF derivatives were incubated with mouse liver microsomes (MLM) and an NADPH‐generating system for 60 min, followed by HPLC analysis. Control samples included compounds and liver microsomes without the NADPH system, allowing for the assessment of nonspecific binding to microsomes. […] Acylated derivatives 12, 13, and 14 achieved stability levels exceeding 95%, as did the bicyclic derivative 7, which exemplifies a dual‐site functionalization.
MLM (pooled male) were obtained from Xenotech, LLC (Cambridge, Kansas City, USA). Glucose‐6‐phosphate (G6P), oxidized nicotinamide‐adenine‐dinucleotide phosphate (NADP^+), magnesium chloride (MgCl2), and glucose‐6‐phosphate‐dehydrogenase (G6PDH) were supplied by Sigma‐Aldrich (Milan, Italy). Metabolic stability assays were modified from Ferlenghi et al.^[ [33] ^] Briefly, samples were prepared in 100 mM phosphate buffered saline (PBS), pH 7.4, containing 1 mg ml^–1 MLM and a NADPH‐generating system (5 mM MgCl2, 10 mM glucose‐6‐phosphate, 2 mM NADP^+, 1.5 U ml^–1 of glucose‐6‐phosphate dehydrogenase). After incubation (37 °C, 5 min stirring), compounds stock solutions in DMSO were added to a final concentration of 10 µM. The final DMSO percentage in samples was kept at 0.5%. After 60 min, single aliquots of reaction mixture were withdrawn, added of two volumes of acetonitrile, centrifuged (10,000 g, 10 min) and the supernatant was analyzed by HPLC. The unspecific binding to MLM was evaluated by means of control samples in which the compounds were incubated in the absence of a NADPH generating system. The apparatus used for HPLC analysis was a Shimadzu instrument, with a reverse‐phase Nova‐Pak column (Waters) (C18 4 μm 3.9 × 150 mm, Waters). The mobile phase, pumped at a flow rate of 1.2 ml min^–1, consisted of water and acetonitrile in either a 50:50 (v/v) ratio (compounds 5c, 6a, 6b, 6c, 7, 8, 12, 13, 14, 17b) or a 40:60 (v/v) ratio (compounds 11 and 15) or a 30:70 (v/v) ratio (for compounds 17a, 18a, 18b). For compounds 9 and 10, a phosphate buffer (5.98 g L^–1 Na2HPO4, 0.19 g L^–1 KH2PO4, adjusted to pH 7.4 with 85% H3PO4 and supplemented with 1.4 mL L^–1 triethylamine; final pH: 8) and acetonitrile (50:50, v/v) were pumped at a flow rate of 2 mL min^–1. In all cases, column temperature was 35 °C, injection volume was 50 µl, and absorbance was monitored at 254 nm. Serial dilutions for the calibration curves were prepared in the interval 0.5–20 µM in either PBS:CH3CN or H2O:CH3CN mixture (50:50, v/v) for compounds 5c, 6a, 6b, 8, 9, 10, 11, 12, 13, 14, 15, 17a, 17b, 18a, 18b, and in acetonitrile for compounds 6c and 7.

secreted PCSK9 = experiment: PCSK9 secretion in culture medium, ELISA on HepG2 supernatants; assay type: cell-based, human
Protocol: Next, the levels of secreted PCSK9 were quantified by ELISA assay (Figure 5) only on supernatants collected from cells treated with noncytotoxic concentrations of each compound, as reported in Table 1. Simvastatin (Simva) at 20 and 40 μM and berberine (BBR) at 10 μM were included as controls. As described in the literature, simvastatin induces PCSK9 expression as a compensatory mechanism in response to its cholesterol‐lowering effects, being a pharmacological competitor for HMG‐CoA reductase, the rate‐limiting enzyme of the cholesterol biosynthetic pathway.^[ [29] ^] In contrast, BBR, a natural compound, reduces the expression of PCSK9 levels through transcriptional inhibition, thus increasing the LDLR availability on plasma membrane.^[ [30] ^] As additional and distinct mechanism to the latter, BBR is also able to stabilize the transcript of LDLR, thus increasing its half‐life.^[ [31] ^] As expected, cells stimulated with simvastatin released more PCSK9 into the culture medium compared to unstimulated cells, with a statistically significant concentration‐dependent effect (+73% at 20 μM, p < 0.01; +200% at 40 μM, p < 0.0001), while BBR at 10 μM decreased PCSK9 levels in the medium more than 50% (p < 0.0001 vs. basal) (Figure 5).^[ [32] ^] The amount of PCSK9 secreted into the culture media was measured with an appropriate ELISA kit (R&D System, DY3888 and DY008B2) on the supernatants collected during the MTT assay. Every experimental condition was run in duplicate and the average PCSK9 secretion and standard deviation was calculated. A 4PL regression analysis was used to interpolate unknowns with the standard curve using GraphPad Prism v10.2, according to manufacturers’ instructions. The data were normalized onto the corresponding cell viability, and IC50 was then calculated using GraphPad Prism v10.2.

[3] = printed in Figures 5 and 8, HepG2, 24 h, read-out: CC50
[4] = Homo sapiens, HepG2, 24 h, read-out: secreted PCSK9 change vs. basal
[5] = Homo sapiens, HepG2, 24 h, ELISA on supernatants, normalized to viability, Figures 5 and 8 and text, read-out: IC50 (anti-PCSK9 activity, PCSK9 secretion)
[6] = 24 h incubation, HepG2, 0.4% FBS, 0.5-50.0 μM, read-out: CC50 (CI 95%)
[7] = HepG2, 24 h, non-cytotoxic concentrations

Structure (SMILES)	CC50 at 24 h [1, 3] [µM]	cytotoxicity (in words) (HepG2 cell cultures)	metabolic stability, percentage of intact compound recovered relative to control ([2]; MLM 1 mg/ml + NADPH-generating system, 60 min, 10 µM, HPLC)	metabolic stability/PCSK9 IC50 ratio (in words) ([2]; with respect to 5c)	inhibition at 50 µM (secreted PCSK9; [4]) [%]	IC50 (secreted PCSK9; [5]) [µM]	metabolic stability (in words) ([2]; 60 min)	CC50 at 24 h [1, 6] [µM]	inhibition at 5 µM (secreted PCSK9; Homo sapiens, 5 μM, HepG2, 24 h, read-out: secreted PCSK9 change vs. basal) [%]	effect on PCSK9 secretion (in words) (secreted PCSK9; [7])	IC50 (secreted PCSK9; Homo sapiens, HepG2, Table S2, ELISA, non-cytotoxic concentrations, read-out: IC50 ± SD on PCSK9 secreted by HepG2) [µM]	inhibition at 25 µM (secreted PCSK9; Homo sapiens, 25 μM, HepG2, 24 h, read-out: secreted PCSK9 change vs. basal) [%]
Cc1cc(OCc2ccc(C(F)(F)F)cc2)c(Cc2ccc(C(F)(F)F)cc2)c(=O)n1Cc1ccc(C(F)(F)F)cc1 [Compound 18a, 6‐Methyl‐1,3‐Bis(4‐(Trifluoromethyl)Benzyl)‐4‐((4‐(Trifluoromethyl)Benzyl)Oxy)pyridin‐2(1H)‐One]	> 50	nontoxic at all the concentrations tested	exceeding 95%	higher metabolic stability/PCSK9 IC50 ratio	80	2.1	–	–	–	–	–	–
Cc1cc(OCc2cccc(F)c2)c(Cc2cccc(F)c2)c(=O)n1Cc1ccc(Cl)cc1 [Compound 18b, 1‐(4‐Chlorobenzyl)‐3‐(3‐Fluorobenzyl)‐4‐((3‐Fluorobenzyl)Oxy)‐6‐Methylpyridin‐2(1H)‐One]	> 50	nontoxic at all the concentrations tested	–	–	81	3.3	did not show any improvement in metabolic stability compared to 5c	–	–	–	–	–
Cc1cc(OCc2ccc(C(F)(F)F)cc2)cc(=O)n1Cc1ccc(C(F)(F)F)cc1 [Compound 17a, 6‐Methyl‐1‐(4‐(Trifluoromethyl)Benzyl)‐4‐((4‐(Trifluoromethyl)Benzyl)Oxy)pyridin‐2(1H)‐One]	–	–	–	–	–	–	did not show improved metabolic stability compared to 5c	22	58	–	–	–
Cc1cc2c(c(=O)n1Cc1ccc(C(F)(F)F)cc1)CCC(=O)N2Cc1ccc(C(F)(F)F)cc1 [Compound 11, 7‐Methyl‐1,6‐Bis(4‐(Trifluoromethyl)Benzyl)‐4,6‐Dihydro‐1,6‐Naphthyridine‐2,5(1H,3H)‐Dione]	–	–	–	–	–	–	modest yet notable improvement in stability	28	–	moderate but significant inhibition of PCSK9 secretion	10.2 ± 2.81	–
CC(=O)N(Cc1ccc(C(F)(F)F)cc1)c1cc(C)n(Cc2ccc(C(F)(F)F)cc2)c(=O)c1Br [Compound 15, N‐(3‐Bromo‐6‐Methyl‐2‐Oxo‐1‐(4‐(Trifluoromethyl)Benzyl)‐1,2‐Dihydropyridin‐4‐yl)‐N‐(4‐(Trifluoromethyl)Benzyl)Acetamide]	> 50	–	–	–	–	–	did not result in improved stability over the single‐site modifications in 12 or 6b	–	–	did not inhibit PCSK9 in a dose‐dependent manner	–	80
